Experimental data as given in patent US6979686B1, “Substituted pyrazoles as p38 kinase inhibitors” (Pharmacia Corporation, priority 2001, dated 2005).
Where two headings read alike, the source gives them in different places.

Key:
human p38 kinase alpha = biological target: T1, human p38 kinase alpha (Homo sapiens, UniProt Q16539); test: p38 kinase in vitro assay, phosphorylation of biotinylated PHAS-I with 32P-ATP; type: biochemical; details: for IC50: read-out: P38 alpha kinase IC50; for P38 alpha kinase % inhib @ conc. (uM) / inhibition at 1 µM: @ 1.0 uM; for inhibition at 1 µM: read-out: P38 alpha kinase % inhib @ conc.
T1 construct: GST (N, cleaved yes); made in house; host or cells: E. coli DH10B
T1 sequence (Q16539 whole entry): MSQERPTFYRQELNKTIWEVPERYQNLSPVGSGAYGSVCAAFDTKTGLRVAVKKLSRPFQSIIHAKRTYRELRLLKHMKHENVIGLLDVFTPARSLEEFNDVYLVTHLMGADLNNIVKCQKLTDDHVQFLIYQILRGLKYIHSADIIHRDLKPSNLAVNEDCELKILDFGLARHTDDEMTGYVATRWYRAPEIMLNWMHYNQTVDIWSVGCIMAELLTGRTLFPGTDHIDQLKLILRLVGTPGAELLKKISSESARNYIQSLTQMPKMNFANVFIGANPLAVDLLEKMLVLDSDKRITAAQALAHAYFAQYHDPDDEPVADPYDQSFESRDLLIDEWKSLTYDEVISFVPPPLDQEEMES

[1] = tested on: TNF-α, U937 human histiocytic lymphoma cell line; test: LPS stimulation of TNF production by U937 cells; type: cell-based; details: for inhibition at 1 µM: U-937, @ 1.0 uM; for U937 Cell % inhib @ conc. (uM): @ 1.0 uM; for IC50: human U937 cells stimulated with LPS, read-out: U937 Cell IC50; for U937 Cell % inhib @ conc. / U937 Cell IC50, uM or % inhib @ conc. (uM): % inhib: @ 10.0 uM
Method in brief: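 U937 cells differentiated 24 h with 20 ng/ml PMA, rested 24-48 h, used at 2 million cells/ml. Compounds in 0.1% DMSO final; LPS (E. coli, 100 ng/ml final) stimulation for 4 h at 37° C. Released TNF-α measured by ELISA; IC50 (μM).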

[2] = in vitro P38-alpha kinase inhibition
[3] = Homo sapiens, TNF production, U937 cells stimulated with LPS, read-out: U937 Cell % inhib @ conc.
[4] = TNF production, U937 cells stimulated with LPS
[5] = TNF production in human U937 cells stimulated with LPS
[6] = Homo sapiens, U-937, TNF production
[7] = Homo sapiens, TNF production, LPS-stimulated U937 cells, read-out: U937 Cell % inhib @ conc.
[8] = TNF production, LPS-stimulated U937 cells
[9] = Homo sapiens, TNF production in human U937 cells stimulated with LPS, read-out: U937 Cell % inhib @ conc.

O=C(NCCc1[nH]nc(-c2ccc(F)cc2)c1-c1ccncc1)c1cc(F)cc(F)c1 [Example B-1130]
IC50 (human p38 kinase alpha; [2]): 500 nM | inhibition at 1 µM [1, 3]: 29%

O=C(NCCc1[nH]nc(-c2ccc(F)cc2)c1-c1ccncc1)NCc1ccccc1 [Example B-0939]
P38 alpha kinase % inhib @ conc. (uM) (human p38 kinase alpha): 78.0% @ | U937 Cell % inhib @ conc. (uM) [1, 4]: 14.0% @

Cc1cccc(C(=O)NC(C)c2[nH]nc(-c3ccc(F)cc3)c2-c2ccncc2)c1 (centres unmarked) [Example B-0692]
IC50 (human p38 kinase alpha; [2]): 380 nM | U937 Cell % inhib @ conc. (uM) [1, 5]: 29.0% @

CCNC(=O)NC(CCC(=O)NC)c1[nH]nc(-c2ccc(F)cc2)c1-c1ccncc1 (centres unmarked) [Example B-0883]
IC50 (human p38 kinase alpha; [2]): 1060 nM | IC50 [1, 6]: > 1000 nM

O=C(NCc1[nH]nc(-c2ccc(F)cc2)c1-c1ccncc1)c1ccccc1C(F)(F)F [Example B-0016]
inhibition at 1 µM (human p38 kinase alpha): 94% | IC50 [1, 6]: 3980 nM

O=C(NCCc1[nH]nc(-c2ccc(F)cc2)c1-c1ccncc1)Nc1ccc(Br)cc1 [Example B-0938]
P38 alpha kinase % inhib @ conc. (uM) (human p38 kinase alpha): 51.0% @ | U937 Cell % inhib @ conc. (uM) [1, 4]: 29.0% @

O=C(NCCc1[nH]nc(-c2ccc(F)cc2)c1-c1ccncc1)c1cc(Cl)cc(Cl)c1 [Example B-1126]
IC50 (human p38 kinase alpha; [2]): 1500 nM | IC50 [1, 6]: > 1000 nM

O=C(NCCc1[nH]nc(-c2ccc(F)cc2)c1-c1ccncc1)NC1CC1c1ccccc1 (racemic) [Example B-0941]
P38 alpha kinase % inhib @ conc. (uM) (human p38 kinase alpha): 81.0% @ | U937 Cell % inhib @ conc. (uM) [1, 4]: 25.0% @

O=C(NCCCc1[nH]nc(-c2ccc(F)cc2)c1-c1ccncc1)NCc1cccnc1 [Example B-1310]
IC50 (human p38 kinase alpha; in vitro P38-alpha kinase): 120 nM | inhibition at 1 µM [1, 7]: 11%

COc1ccccc1CCNC(=O)Cn1nc(-c2ccc(F)cc2)c(-c2ccncc2)c1C [Example B-2315]
IC50 (human p38 kinase alpha; in vitro P38-alpha kinase): 490 nM | U937 Cell % inhib @ conc. [1, 8]: 36.0% @

Cc1cccc(S(=O)(=O)N2CCC(c3[nH]nc(-c4ccc(F)cc4)c3-c3ccncc3)CC2)c1 [Example B-1467]
IC50 (human p38 kinase alpha; in vitro P38-alpha kinase): 1220 nM | inhibition at 1 µM [1, 7]: 1%

CCCCOc1ccc(S(=O)(=O)NCCc2[nH]nc(-c3ccc(F)cc3)c2-c2ccncc2)cc1 [Example B-1084]
IC50 (human p38 kinase alpha; [2]): 430 nM | inhibition at 1 µM [1, 3]: 29%

COc1ccc(CC(=O)NC(C)c2[nH]nc(-c3ccc(F)cc3)c2-c2ccncc2)cc1 (centres unmarked) [Example B-0549]
IC50 (human p38 kinase alpha; [2]): 2220 nM | inhibition at 1 µM [1, 9]: 22%

O=C(NCc1[nH]nc(-c2ccc(F)cc2)c1-c1ccncc1)c1ccccc1I [Example B-0005]
inhibition at 1 µM (human p38 kinase alpha): 95% | IC50 [1, 6]: 2970 nM

O=C(NCc1[nH]nc(-c2ccc(F)cc2)c1-c1ccncc1)c1c(Cl)cc(Cl)cc1Cl [Example B-0019]
inhibition at 1 µM (human p38 kinase alpha): 84% | inhibition at 10 µM ([1]; Homo sapiens, U-937, @ 10.0 uM, TNF production, U937 cells stimulated with LPS, read-out: U937 Cell % inhib @ conc.): 100%

COc1ccc(OC)c(S(=O)(=O)NCCc2[nH]nc(-c3ccc(F)cc3)c2-c2ccncc2)c1 [Example B-1085]
IC50 (human p38 kinase alpha; [2]): < 100 nM | inhibition at 1 µM [1, 3]: 29%

CNC(=O)CCC(NC(=O)c1ccccc1F)c1[nH]nc(-c2ccc(F)cc2)c1-c1ccncc1 (centres unmarked) [Example B-0874]
IC50 (human p38 kinase alpha; [2]): 1920 nM | IC50 [1, 6]: > 1000 nM

Cc1c(-c2ccncc2)c(-c2ccc(F)cc2)nn1CC(=O)NC(C)Cc1c[nH]c2ccccc12 (centres unmarked) [Example B-2328]
P38 alpha kinase % inhib @ conc. (human p38 kinase alpha; @ 10.0 uM): 65.0% @ | U937 Cell % inhib @ conc. [1, 8]: 28.0% @

O=C(NC(Cc1ccccc1)c1[nH]nc(-c2ccc(F)cc2)c1-c1ccncc1)C1CC1 (centres unmarked) [Example B-0837]
IC50 (human p38 kinase alpha; [2]): 1960 nM | IC50 ([1]; TNF production): > 1000 nM

O=S(=O)(NCCc1[nH]nc(-c2ccc(F)cc2)c1-c1ccncc1)c1ccc2ccccc2c1 [Example B-1068]
IC50 (human p38 kinase alpha; [2]): 480 nM | inhibition at 1 µM [1, 3]: 24%

CC(NC(=O)Nc1cccc(F)c1)c1[nH]nc(-c2ccc(F)cc2)c1-c1ccncc1 (centres unmarked) [Example B-0595]
IC50 (human p38 kinase alpha; [2]): 2420 nM | U937 Cell % inhib @ conc. (uM) [1, 5]: 22.0% @

CCOC(=O)COc1cccc(NC(=O)Cn2nc(-c3ccc(F)cc3)c(-c3ccncc3)c2C)c1 [Example B-2458]
P38 alpha kinase IC50, uM or % inhib @ conc. (uM): % inhib (human p38 kinase alpha; @ 10.0 uM): 83.0% @ | U937 Cell IC50, uM or % inhib @ conc. (uM): % inhib [1, 4]: 36.0% @

COc1ccc(CC(=O)NC(Cc2ccccc2)c2[nH]nc(-c3ccc(F)cc3)c2-c2ccncc2)cc1 (centres unmarked) [Example B-0816]
IC50 (human p38 kinase alpha; [2]): 3460 nM | IC50 [1, 6]: > 1000 nM

CC(NC(=O)c1ccc(F)c(F)c1F)c1[nH]nc(-c2ccc(F)cc2)c1-c1ccncc1 (centres unmarked) [Example B-0546]
IC50 (human p38 kinase alpha; [2]): 1040 nM | inhibition at 1 µM [1, 9]: 18%

Cc1cccc(OC(=O)c2ccc(NC(=O)Cn3nc(-c4ccc(F)cc4)c(-c4ccncc4)c3C)cc2)c1 [Example B-2444]
P38 alpha kinase IC50, uM or % inhib @ conc. (uM): % inhib (human p38 kinase alpha; @ 10.0 uM): 89.0% @ | U937 Cell IC50, uM or % inhib @ conc. (uM): % inhib [1, 4]: 7.0% @
